Assay results: patent US7807691B2, “Substituted N-arylpyrrolidines as selective androgen receptor modulators” (Eli Lilly and Company, priority 2005, dated 2010)
Where two headings read alike, the source gives them in different places.

Columns and labels:
[1] = target: T1, human AR (androgen receptor) (Homo sapiens, UniProt P10275); assay: Steroid hormone nuclear receptor binding assay (AR binding)
T1 construct: expressed in transfected cells; host or cells: 293 cells (293-AR lysate)
T1 sequence (P10275 1-920): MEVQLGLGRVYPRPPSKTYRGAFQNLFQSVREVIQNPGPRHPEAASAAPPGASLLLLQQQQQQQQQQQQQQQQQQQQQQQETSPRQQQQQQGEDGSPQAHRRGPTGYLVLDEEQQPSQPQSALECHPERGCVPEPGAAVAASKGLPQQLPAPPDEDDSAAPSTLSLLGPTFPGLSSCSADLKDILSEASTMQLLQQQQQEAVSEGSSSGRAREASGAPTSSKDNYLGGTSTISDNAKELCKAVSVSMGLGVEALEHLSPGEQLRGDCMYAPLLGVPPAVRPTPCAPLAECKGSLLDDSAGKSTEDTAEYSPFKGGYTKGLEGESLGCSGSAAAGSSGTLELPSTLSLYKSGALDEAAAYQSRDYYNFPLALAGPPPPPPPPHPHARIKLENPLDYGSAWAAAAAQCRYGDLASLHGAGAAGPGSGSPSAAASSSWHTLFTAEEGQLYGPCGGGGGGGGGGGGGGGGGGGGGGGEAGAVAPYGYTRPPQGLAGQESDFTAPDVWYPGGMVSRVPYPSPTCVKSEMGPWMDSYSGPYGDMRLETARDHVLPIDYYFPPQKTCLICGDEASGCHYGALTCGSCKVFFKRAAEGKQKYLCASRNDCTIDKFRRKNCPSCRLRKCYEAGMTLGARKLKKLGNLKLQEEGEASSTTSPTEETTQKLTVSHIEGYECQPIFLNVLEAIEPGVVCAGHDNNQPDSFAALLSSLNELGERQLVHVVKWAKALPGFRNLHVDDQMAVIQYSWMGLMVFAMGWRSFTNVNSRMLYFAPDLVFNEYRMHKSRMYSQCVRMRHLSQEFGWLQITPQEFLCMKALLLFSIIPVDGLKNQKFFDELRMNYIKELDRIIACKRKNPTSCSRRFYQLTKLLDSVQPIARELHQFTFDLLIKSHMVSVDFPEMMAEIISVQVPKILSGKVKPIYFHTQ
Experimental: Cell lysates from 293 cells overexpressing human GR (glucocorticoid receptor), AR (androgen receptor), MR (mineralocorticoid receptor) or PR (progesterone receptor) are used for competition binding assays to determine Ki values for test compounds. Briefly, competition binding assays are run in a buffer containing 20 mM Hepes, pH 7.6, 0.2 mM EDTA, 75 mM NaCl, 1.5 mM MgCl2, 20% glycerol, 20 mM sodium molybdate, 0.2 mM DTT, 20 ug/ml aprotinin and 20 ug/ml leupeptin, using either 0.3 nM ^3H-dexamethasone for GR binding, 0.36 nM ^3H-methyltrienolone for AR binding, 0.25 nM ^3H-aldosterone for MR binding, or 0.29 nM ^3H-methyltrienolone for PR binding, and either 20 ug 293-GR lysate, 22 ug 293-AR lysate, 20 ug 293-MR lysate or 40 ug 293-PR lysate per well. Competing compounds are added at various concentrations ranging from about 0.01 nM to 10 μM. Non-specific binding is determined in the presence of 500 nM dexamethasone for GR binding, 500 nM aldosterone for MR binding, or 500 nM methyltrienolone for AR and PR binding. The binding reaction (140 μl) is incubated for overnight at 4° C., then 70 μl of cold charcoal-dextran buffer (containing per 50 ml of assay buffer, 0.75 g of charcoal and 0.25 g of dextran) is added to each reaction. Plates are mixed 8 minutes on an orbital shaker at 4° C. Plates are then centrifuged at 3,000 rpm at 4° C. for 10 minutes. An aliquot of 120 μl of the mix is transferred to another 96-well plate and 175 μl of Wallac Optiphase “Hisafe 3” scintillation fluid is added to each well. Plates are sealed and shaken vigorously on an orbital shaker. After an incubation of 2 hrs, plates are read in a Wallac Microbeta counter. The data is used to calculate an IC50 and % Inhibition at 10 μM. The Kd for ^3H-dexamethasone for GR binding, ^3H-methyltrienolone for AR binding, ^3H-aldosterone for MR binding, or ^3H-methyltrienolone for PR binding, is determined by saturation binding. The IC50 values for test compounds are converted to Ki using Cheng-Prusoff equation and the Kd determined by saturation binding assay.
Binding assay protocols for steroid hormone nuclear receptors similar to those described above can be readily designed by the ordinarily skilled artisan.

[2] = target: T2, human androgen receptor (AR) (Homo sapiens, UniProt P10275); assay: C2C12 AR/ARE reporter assay; type: cell-based; details: for EC50: mouse myoblast C2C12 cells, luciferase reporter, 48 h; for C2C12 % Efficacy: versus maximum stimulation obtained with 10 nM methyltrienolone
T2 construct: expressed in transfected cells; host or cells: mouse myoblast C2C12 cells, transiently co-transfected with FuGENE
T2 sequence (P10275 1-920): T1 sequence (P10275 1-920)
Experimental: As an indicator of agonist activity in muscle tissue, the C2C12 AR/ARE reporter assay is performed. Briefly, mouse myoblast C2C12 cells are co-transfected using FuGENE™. […] Cells are transfected in T150 cm^2 flasks in DMEM media with 4% or 10% Fetal Bovine Serum (FBS). After a 5 hour incubation, transfected cells are trypsinized, plated in 96 well dishes in DMEM media containing 10% charcoal-stripped FBS, incubated for 2 h and then exposed to various concentrations of test compounds ranging from about 0.01 nM to 10 μM. After 48 h of incubations with compounds, cells are lysed and luciferase activity is determined using standard techniques. Data is fit to a 4 parameter-fit logistics to determine EC50 values. The % efficacy is determined versus maximum stimulation obtained with 10 nM methyltrienolone. […]

[3] = AR binding Ki (nM), 293-AR cell lysate, 3H-methyltrienolone competition
[4] = C2C12, read-out: C2C12 % Efficacy, versus maximum stimulation obtained with 10 nM methyltrienolone, average

SMILES | Ki [1, 3] | Emax [2, 4] | EC50 ([2]; C2C12 EC50(nM), average) | C2C12 % Efficacy ([2]; average) | Ki [1] | Emax ([2]; C2C12, read-out: C2C12 % Efficacy) | EC50 ([2]; average, read-out: C2C12 EC50)
CCC1CCC(c2ccccc2)N1c1ccc(C#N)c(Cl)c1 (mixture of isomers) [Example 22, 2-Chloro-4-(2-ethyl-5-phenyl-pyrrolidin-1-yl)-benzonitrile] | 4.9 nM | 85.5% | 17.7 nM | – | – | – | –
CCC1CCC(c2ccccc2)N1c1ccc(C#N)c(Cl)c1C (mixture of isomers) [Example 23, 2-Chloro-4-(2-ethyl-5-phenyl-pyrrolidin-1-yl)-3-methyl-benzonitrile] | 27.1 nM | 70.1% | 131 nM | – | – | – | –
CCC1CCC(c2ccccc2)N1c1ccc(C#N)c(Cl)c1 (single isomer, unassigned) [Example 22a, 2-Chloro-4-(2-ethyl-5-phenyl-pyrrolidin-1-yl)-benzonitrile] | 122 nM | – | 32.4 nM | 92.4% | – | – | –
CCC1CCC(c2ccccc2)N1c1ccc(C#N)c(Cl)c1 (single isomer, unassigned) [Example 22b, 2-Chloro-4-(2-ethyl-5-phenyl-pyrrolidin-1-yl)-benzonitrile] | 39.9 nM | – | 25 nM | 80.6% | – | – | –
CCC1CCC(c2ccccc2)N1c1ccc(C#N)c(Cl)c1 (single isomer, unassigned) [Example 22c, 2-Chloro-4-(2-ethyl-5-phenyl-pyrrolidin-1-yl)-benzonitrile] | 39.8 nM | – | 135 nM | 61.3% | – | – | –
CCC1CCC(c2ccccc2)N1c1ccc(C#N)c(Cl)c1 (single isomer, unassigned) [Example 22d, 2-Chloro-4-(2-ethyl-5-phenyl-pyrrolidin-1-yl)-benzonitrile] | 2.2 nM | – | 6.1 nM | 66.5% | – | – | –
Cc1c(N2CCCC2c2ccccc2)ccc(C#N)c1Cl (stereo not drawn) [Example 1, 2-Chloro-3-methyl-4-(2-phenyl-pyrrolidin-1-yl)-benzonitrile] | 1.4 nM | 67.6% | 1.2 nM | – | – | – | –
Cc1c(N2CCCC2c2ccc(Cl)cc2)ccc(C#N)c1Cl (stereo not drawn) [Example 2] | 4.3 nM | 61% | 36.7 nM | – | – | – | –
Cc1c(N2CCCC2c2ccc(F)cc2)ccc(C#N)c1Cl (stereo not drawn) [Example 3] | 2.7 nM | 51.1% | 5.1 nM | – | – | – | –
Cc1c(N2CC(C)(C)CC2c2ccccc2)ccc(C#N)c1Cl (stereo not drawn) [Example 4] | 6.6 nM | 84.9% | 11.2 nM | – | – | – | –
COc1cccc(C2CCCN2c2ccc(C#N)c(Cl)c2C)c1 (stereo not drawn) [Example 5] | 1.1 nM | 102% | 0.9 nM | – | – | – | –
COc1ccccc1C1CCCN1c1ccc(C#N)c(Cl)c1C (stereo not drawn) [Example 6] | 7 nM | 81.7% | 177 nM | – | – | – | –
COc1ccc(C2CCCN2c2ccc(C#N)c(Cl)c2C)cc1 (stereo not drawn) [Example 7] | 3.4 nM | 68.9% | 28.3 nM | – | – | – | –
Cc1c(N2CCCC2c2ccccc2C(F)(F)F)ccc(C#N)c1Cl (stereo not drawn) [Example 8] | 72.9 nM | -38.5% | – | – | – | – | –
Cc1c(N2CCCC2c2ccccn2)ccc(C#N)c1Cl (stereo not drawn) [Example 10] | 4.7 nM | 79.8% | 40.8 nM | – | – | – | –
Cc1c(N2CCCC2c2ccncc2)ccc(C#N)c1Cl (stereo not drawn) [Example 11] | 6 nM | 76.8% | 6.8 nM | – | – | – | –
CSc1cccc(C2CCCN2c2ccc(C#N)c(Cl)c2C)c1 (stereo not drawn) [Example 13] | 5.8 nM | 84.7% | 9.7 nM | – | – | – | –
CSc1ccc(C2CCCN2c2ccc(C#N)c(Cl)c2C)cc1 (stereo not drawn) [Example 14] | 13.4 nM | 73.1% | 21.2 nM | – | – | – | –
Cc1c(N2CCCC2c2cncnc2)ccc(C#N)c1Cl (stereo not drawn) [Example 15] | 2.8 nM | 85.1% | 0.4 nM | – | – | – | –
N#Cc1ccc(N2CCCC2c2cccnc2)cc1Cl (stereo not drawn) [Example 16] | 17.4 nM | 42.6% | 109 nM | – | – | – | –
CC1(c2ccc3c(c2)OCO3)CCCN1c1ccc(C#N)c(Cl)c1 (stereo not drawn) [Example 17] | 27.3 nM | 13.2% | – | – | – | – | –
COc1cccc(C2(C)CCCN2c2ccc(C#N)c(Cl)c2)c1 (stereo not drawn) [Example 18] | 24.4 nM | 77.9% | 9.8 nM | – | – | – | –
N#Cc1ccc(N2CCCC2c2ccc3c(c2)OCO3)cc1C(F)(F)F (stereo not drawn) [Example 19] | 17.6 nM | -12.4% | – | – | – | – | –
CC1(c2ccc3c(c2)OCO3)CCCN1c1ccc(C#N)c(C(F)(F)F)c1 (stereo not drawn) [Example 20] | – | – | – | – | 21.1 nM | 4.8% | 516 nM
Cc1c(N2CCCC2c2cccc(S(C)(=O)=O)c2)ccc(C#N)c1Cl (stereo not drawn) [Example 21, 2-Chloro-4-[2-(3-methanesulfonyl-phenyl)-pyrrolidin-1-yl]-3-methyl-benzonitrile] | 3 nM | 58.1% | 103 nM | – | – | – | –
CC1(C)CC(c2ccc3c(c2)OCO3)N(c2ccc(C#N)c(Cl)c2)C1 (stereo not drawn) [Example 24, 4-[2-(1,3-benzodioxol-5-yl)-4,4-dimethylpyrrolidin-1-yl]-2-chlorobenzonitrile] | 12.7 nM | 23.4% | 397 nM | – | – | – | –
Cc1nnc(C2CCCN2c2ccc(C#N)c(Cl)c2C)o1 (stereo not drawn) [Example 25, 2-chloro-3-methyl-4-[2-(5-methyl-1,3,4-oxadiazol-2-yl)pyrrolidin-1-yl]benzonitrile] | 3.7 nM | 80.5% | 0.9 nM | – | – | – | –
Cc1c(N2CCCC2c2nnco2)ccc(C#N)c1Cl (stereo not drawn) [Example 26, 2-chloro-3-methyl-4-[2-(1,3,4-oxadiazol-2-yl)-1-pyrrolidinyl]benzonitrile] | 5.4 nM | 82.7% | 4.2 nM | – | – | – | –
Cc1noc(C2CCCN2c2ccc(C#N)c(Cl)c2C)n1 (stereo not drawn) [Example 27, 2-chloro-3-methyl-4-[2-(3-methyl-1,2,4-oxadiazol-5-yl)pyrrolidin-1-yl]benzonitrile] | 1.9 nM | 87.6% | 0.5 nM | – | – | – | –
Cc1nnc(C2CCCN2c2ccc(C#N)c(Cl)c2C)s1 (stereo not drawn) [Example 28, 2-chloro-3-methyl-4-[2-(5-methyl-1,3,4-thiadiazol-2-yl)pyrrolidin-1-yl]benzonitrile] | 9 nM | 74.3% | 24.4 nM | – | – | – | –
